What was measured:
Format in all cases: cell-based
[1] = system: HPV+ keratinocytes grown into organotypic epithelial rafts; experiment: EdU proliferation in HPV+ organotypic epithelial rafts
Description: (§1) On raft day 14, the tissues were harvested and lysed with RIPA buffer to extract protein for western blotting. […] Beta-actin was used to show equal protein loading. (B) HPV− and HPV+ rafts were treated with increasing doses of OSMI-1, an inhibitor of OGT activity, from day 8 to day 14 of the raft culturing protocol. EdU, a thymidine analog that incorporates into DNA during DNA synthesis, was added to the media on day 13. 24 h later, on raft day 14, tissues were fixed in PFA for paraffin-embedding, sectioning, and immunofluorescence (IF) staining. Representative IF images are shown with nuclei stained with DAPI (blue), and proliferating cells visualized with click chemistry to detect EdU incorporation (pink). Quantification of the number of EdU+ cells per field is shown to the right. […] 2-way ANOVA was used to determine significance. Representative images shown. n=3.
(§2) Representative IF images are shown with nuclei stained with DAPI (blue), proliferating cells visualized with click chemistry to detect EdU incorporation (white), basal cell layer keratinocytes stained with collagen 17A (COL17A; green) and differentiated layer keratinocytes stained with keratin 10 (K10; red). Quantifications of the total (top graph) and suprabasal (lower graph) number of EdU+ cells per field are shown to the right. […] 2-way ANOVA was used to determine significance. Representative images shown. n=3.

[2] = system: HPV+ keratinocytes 3D spheroids; experiment: 3D spheroid area, brightfield microscopy; conditions: HPV+ spheres, culture day 4, n=4
Description: FIG. 3 (A) HPV+ and HPV− keratinocytes were seeded in round-bottom plates to form 3D spheroids (Day 0). 48 h after plating the cells (Day 2), increasing doses of Eliglustat were added to the media. 48 h after adding the drug treatment (Day 4), spheroids were imaged with brightfield microscopy and images quantified for sphere area. n=4. (B) Quantification of sphere area on culture day 4 after treatment with increasing doses of Eliglustat for 48 h.

[3] = system: HPV− keratinocytes grown into organotypic epithelial rafts; experiment: EdU proliferation in HPV− organotypic epithelial rafts
Description: as §1, §2

[4] = increasing doses of Eliglustat, raft day 8 to day 14, EdU added day 13, n=3
[5] = 6.25 uM OSMI-1, treated raft day 8 to day 14, EdU added day 13, n=3
[6] = 25 uM OSMI-1 (highest dose tested), raft day 8 to day 14

SMILES | Proliferation (total and suprabasal number of EdU+ cells per field) [1, 4] | Sphere area ([2]; 25 uM Eliglustat (highest dose tested), 48 h) | Sphere area ([2]; increasing doses of Eliglustat for 48 h) | Proliferation (total and suprabasal number of EdU+ cells per field) [3, 4] | Proliferation (number of EdU+ cells per field) [1, 5] | Proliferation (number of EdU+ cells per field) [1, 6] | Proliferation (number of EdU+ cells per field) [3, 5] | Proliferation (number of EdU+ cells per field) [3, 6]
CCCCCCCC(=O)N[C@H](CN1CCCC1)[C@H](O)c1ccc2c(c1)OCCO2 [Eliglustat] | significantly decreased with increasing dose | significantly reduce HPV+ sphere area to that of HPV− spheres | decreased concomitantly with increasing Eliglustat dose | no significant effect on proliferation |  |  |  | 
COc1ccccc1[C@@H](NS(=O)(=O)c1ccc2[nH]c(=O)ccc2c1)C(=O)N(Cc1ccco1)Cc1cccs1 [OSMI-1] |  |  |  |  | significantly decreased | decreased proliferation | no effect on proliferation | decreased proliferation
